Experimental data: patent US20110275711A1, “METHOD FOR TREATING MACULAR EDEMA” (R-TECH UENO, LTD., priority 2010, published 2011)

Legend:
[1] = tested on: rhVEGF induced retinal vascular leakage; assay: Inhibition of rhVEGF induced retinal vascular leakage in rabbit model (vitreous fluorescein leakage); type: in vivo, GD79B rabbit (pigmented); settings: 50 μl test composition intravitreal just after rhVEGF 500 ng; for Fluorescein Leakage (AUC) right eye (treated), Mean: measured 48 h after rhVEGF, 1 h after sodium fluorescein i.v., n=8; for Inhibition of fluorescein leakage (vs. control): AUC ratio compared with vehicle control group; for ratio of AUC right/left, Mean ± S.D.: treated eye/untreated eye
Description: The effect of the fatty acid derivative to inhibit retinal vascular leakage in rabbit model.
Animals: GD79B rabbit (pigmented). Each group contains 8 animals.
1) 0.15 w/v % isopropyl unoprostone: formulation example 1 2) 4 w/v % triamcinolone acetonide: Kenacort® Retard (Bristol-Myers Squibb Japan, Tokyo, JP) (positive control) 3) vehicle of isopropyl unoprostone (composition comprising the ingredients of formulation example 1 except for isopropyl unoprostone) (control)
Retinal vascular leakage model animals were prepared. Recombinant human vascular endothelial cell growth factor (rhVEGF) 500 ng (in 50 μl) was injected intravitreally in the right eye of animals. Just after the injection of rhVEGE, 50 μl of test composition 1 or 2 was injected intraviterally in the right eye of the animal. The left eyes were remain untreated (no rhVEGE nor test compositions).
Forty seven (47) hours after the rhVEGF injection, 50 mg/kg of sodium fluorescein (10 w/v % in physiological saline) was injected to the animals via auricular veins. One (1) hour after the injection of sodium fluorescein, the fluorescence intensities in the vitreous body of the treated and untreated eyes were measured by using a corneal spectrophotometer. Based on the measured value, area under the curve (AUC) of the fluorescence intensity that reflects the leakage and the ratio of AUC (treated eye/untreated eye, i.e. right eye/left eye) were calculated. The AUC ratio of isopropyl unoprostone and triamcinolone acetonide administered group were compared to the AUC ratio of the control group to give the inhibition (%) of retinal vascular leakage.

macular edema = settings: package insert of Xalatan; cited from earlier work

Row | Structure (SMILES) | Fluorescein Leakage (AUC) right eye (treated), Mean [1] | Inhibition of fluorescein leakage (vs. control) [1] [%] | ratio of AUC right/left, Mean ± S.D. [1] | macular edema as side effect (macular edema)
1 | CC1(C)O[C@@H]2C[C@H]3[C@@H]4CCC5=CC(=O)C=C[C@]5(C)[C@@]4(F)[C@@H](O)C[C@]3(C)[C@]2(C(=O)CO)O1 [triamcinolone acetonide] | 3715.6 | 89 | 0.98 ± 0.44 | –
2 | CC(C)OC(=O)CCC/C=C\C[C@@H]1[C@@H](CC[C@@H](O)CCc2ccccc2)[C@H](O)C[C@@H]1O [latanoprost, (+)-Isopropyl (Z)-7-[(1R,2R,3R,5S)-3,5-dihydroxy-2-[(3R)-3-hydroxy-5-phenylpentyl]cyclopentyl]-5-heptenoate] | – | – | – | causes macular edema as a side effect
3 | CCCCCCCC(=O)CC[C@@H]1[C@@H](C/C=C\CCCC(=O)OC(C)C)[C@@H](O)C[C@H]1O [isopropyl unoprostone, (+)-isopropyl (Z)-7-[(1R,2R,3R,5S)-3,5-dihydroxy-2-(3-oxodecyl)cyclopentyl]hept-5-enoate] | 10998.4 | 60 | 3.43 ± 4.01 | –
